In EP3744709B1, “NEW CRYSTAL FORM OF TEMBOTRIONE” (ANHUI JIUYI AGRICULTURE CO., LTD., priority 2018, dated 2020):
In brackets after ≈: the same amount, converted by molar mass.

Tests used:
physchem = assay type: physicochemical; settings: for solubility: 25 °C, thermodynamic from solid; for Solubility, water: pH 4
Method: At 25±2°C, 100mL (which may be scaled down) solvent was added in a beaker. A certain mass of crystal forms A, B, C and D of tembotrione were weighted (to ensure insufficient dissolution, tembotrione may be weighted more than once if necessary and the total mass was calculated). The solute was gradually added, continuously stirred and sufficiently dissolved until the solution was exactly saturated (if there was solid precipitation, it was filtrated out and dried, and put back to the undissolved solid). Total mass of the undissolved solid was weighted to calculate the mass of the dissolved solid in 100mL (100g) solvent, i.e., the solubility of the solid in the solvent at the temperature. In the present disclosure, solubility of crystal forms A, B, C and D of tembotrione in several common solvents were tested, and the results were shown in Table 2. Table 2 Solubility of crystal forms A, B, C and D of tembotrione in different solvents

[1] = Dissolution rate test (suspension in methanol/water with temperature cycling, decomposition after 14 days); assay type: physicochemical; settings: suspended in methanol : water 1 : 5 (volume), 10-30° C, 14 days later; for decomposition rate: temperature periodically changed at 0.5K/min
Method: Further, in the present disclosure, the dissolution rate of crystal from D of tembotrione was tested as following: the crystal form D of tembotrione was suspended in a mixture of methanol and water (the volume ratio of methanol : water was 1 : 5) at a temperature of 10-30° C, and the temperature was changed at a rate of 0.5K/min. […] Crystal forms A, B, C and D of tembotrione were suspended in a mixture of methanol and water (the volume ratio of methanol to water was 1 : 5) at a temperature of 10-30° C, and the temperature was periodically changed at a rate of 0.5K/min.

Compound	solubility (physchem; organic solvent or mixture, methanol) [µg/mL]	solubility (physchem; organic solvent or mixture, toluene) [µg/mL]	solubility (physchem; pH 4, aqueous buffer, water) [µg/mL]	decomposition rate [1] [%]	Solubility, methanol (physchem) [µg/mL]	Solubility, toluene (physchem) [µg/mL]	Solubility, water (physchem) [µg/mL]	dissolution rate ([1]; 0.5K/min)
CS(=O)(=O)c1ccc(C(=O)C2C(=O)CCCC2=O)c(Cl)c1COCC(F)(F)F [crystal form A, 2-[2-chloro-4-methylsulfonyl-3-(2,2,2-trifluoroethoxymethyl)benzoyl]cyclohexane-1,3-dione]	8600 (≈ 19.5 mM)	80000 (≈ 181 mM)	260 (≈ 0.59 mM)	0.1				
CS(=O)(=O)c1ccc(C(=O)C2C(=O)CCCC2=O)c(Cl)c1COCC(F)(F)F [crystal form B, 2-[2-chloro-4-methylsulfonyl-3-(2,2,2-trifluoroethoxymethyl)benzoyl]cyclohexane-1,3-dione]				0.4	8800 (≈ 20 mM)	81000 (≈ 184 mM)	280 (≈ 0.635 mM)	
CS(=O)(=O)c1ccc(C(=O)C2C(=O)CCCC2=O)c(Cl)c1COCC(F)(F)F [crystal form C, 2-[2-chloro-4-methylsulfonyl-3-(2,2,2-trifluoroethoxymethyl)benzoyl]cyclohexane-1,3-dione]				0.15	8500 (≈ 19.3 mM)	80200 (≈ 182 mM)	250 (≈ 0.567 mM)	
CS(=O)(=O)c1ccc(C(=O)C2C(=O)CCCC2=O)c(Cl)c1COCC(F)(F)F [crystal form D, 2-[2-chloro-4-methylsulfonyl-3-(2,2,2-trifluoroethoxymethyl)benzoyl]cyclohexane-1,3-dione]				0.06	8200 (≈ 18.6 mM)	75700 (≈ 172 mM)	220 (≈ 0.499 mM)	slow
